Test results published in patent publication US9499550B2 (BRISTOL-MYERS SQUIBB COMPANY, priority 2012, dated 2016).
Read-outs that look alike come from different tables or passages of the source.

Key:
[1] = tested on: HCV genotype 1b (Con1) replicon in HUH-7 cells; experiment: HCV replicon luciferase reporter assay, genotype 1b; type: cell-based; conditions: Hepatitis C virus, Huh-7, 72 h, 3 days incubation, read-out: LE_1b (EC50, range)
In short: (§1)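 Replicon inhibition for both genotypes was measured as Renilla luciferase signal (EnduRen, 7.5 μM final, 2 h) after 3-day, 37° C exposure of replicon-bearing HUH-7 cells in 4% FCS DMEM, 0.5% DMSO. The 1b construct carries S1179I; the 1a H77 construct carries P1496L and S2204I. Twenty-point, 3-fold dilutions were fitted four-parametrically for EC50, and CC50 was taken from multiplexed Cell Titer-Blue.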

[2] = tested on: HCV genotype 1a (H77 strain) replicon in HUH-7 cells; experiment: HCV replicon luciferase reporter assay, genotype 1a; type: cell-based; conditions: Hepatitis C virus, Huh-7, 72 h, 3 days incubation, read-out: LE_1a (EC50, range)
In short: as §1

[3] = GETYPE1B, HCV genotype 1b replicon luciferase
[4] = GETYPE1A, HCV genotype 1a replicon luciferase
[5] = HCV genotype 1b replicon luciferase assay, range class
[6] = HCV genotype 1a replicon luciferase assay, range class
[7] = HCV genotype 1b replicon luciferase
[8] = HCV genotype 1a replicon luciferase

COc1ccc2c(O[C@@H]3C[C@H]4C(=O)N[C@]5(C(=O)NS(=O)(=O)C6(C)CC6)C[C@H]5/C=C\CC[C@@H](C)C[C@@H](C)[C@H](NC(=O)OC(C)(C)C(C)(F)F)C(=O)N4C3)cc(OC)nc2c1 [Compound 1214]
EC50 [1, 3]: 0.1 to 0.5 nM
EC50 [2, 4]: 1.01 to 5 nM

COCCOc1cnc(O[C@@H]2C[C@H]3C(=O)N[C@]4(C(=O)NS(=O)(=O)C5CC5)C[C@H]4/C=C\CC[C@H](C)C[C@@H](C)[C@H](NC(=O)OC(C)(C)C)C(=O)N3C2)c2ccc(OC)cc12 [Compound 1154, tert-butyl ((2R,6S,7R,9S,13aS,14aR,16aS,Z)-14a-((cyclopropylsulfonyl)carbamoyl)-2-((6-methoxy-4-(2-methoxyethoxyl)isoquinolin-1-yl)oxy)-7,9-dimethyl-5,16-dioxo-1,2,3,5,6,7,8,9,10,11,13a,14,14a,15,16,16a-hexadecahydrocyclopropa[e]pyrrolo[1,2-a][1,4]diazacyclopentadecin-6-yl)carbamate]
EC50 [1, 5]: < 5.46 nM
EC50 [2, 6]: < 5.46 nM

COc1cnc(O[C@@H]2C[C@H]3C(=O)N[C@]4(C(=O)NS(=O)(=O)C5(CF)CC5)C[C@H]4CCCC[C@@H](C)C[C@@H](C)[C@H](NC(=O)OC(C)(C)C)C(=O)N3C2)c2ccccc12 [Compound 5115, tert-butyl ((2R,6S,7R,9R,13aR,14aR,16aS)-14a-(((1-(fluoromethyl)cyclopropyl)sulfonyl)carbamoyl)-2-((4-methoxyisoquinolin-1-yl)oxy)-7,9-dimethyl-5,16-dioxooctadecahydrocyclopropa[e]pyrrolo[1,2-a][1,4]diazacyclopentadecin-6-yl)carbamate]
EC50 [1, 7]: < 5.46 nM
EC50 [2, 8]: < 5.46 nM

CC[C@@H]1C[C@H](C)CC/C=C\[C@@H]2C[C@@]2(C(=O)NS(=O)(=O)C2CC2)NC(=O)[C@@H]2C[C@@H](Oc3nccc4c5c(ccc34)OCCO5)CN2C(=O)[C@H]1NC(=O)OC(C)(C)C [Compound 5341, tert-butyl ((2R,6S,7R,9R,13aS,14aR,16aS,Z)-14a-((cyclopropylsulfonyl)carbamoyl)-2-((2,3-dihydro-[1,4]dioxino[2,3-f]isoquinolin-7-yl)oxy)-7-ethyl-9-methyl-5,16-dioxo-1,2,3,5,6,7,8,9,10,11,13a,14,14a,15,16,16a-hexadecahydrocyclopropa[e]pyrrolo[1,2-a][1,4]diazacyclopentadecin-6-yl)carbamate]
EC50 [1, 7]: < 5.46 nM
EC50 [2, 8]: < 5.46 nM

COc1cc(F)cc2c(O[C@@H]3C[C@H]4C(=O)N[C@]5(C(=O)NS(=O)(=O)C6(C)CC6)C[C@H]5/C=C\CC[C@@H](C)C[C@@H](C)[C@H](NC(=O)OCC5(C)CC5)C(=O)N4C3)nccc12 [Compound 3162, (1-methylcyclopropyl)methyl ((2R,6S,7R,9R,13aS,14aR,16aS,Z)-2-((7-fluoro-5-methoxyisoquinolin-1-yl)oxy)-7,9-dimethyl-14a-(((1-methylcyclopropyl)sulfonyl)carbamoyl)-5,16-dioxo-1,2,3,5,6,7,8,9,10,11,13a,14,14a,15,16,16a-hexadecahydrocyclopropa[e]pyrrolo[1,2-a][1,4]diazacyclopentadecin-6-yl)carbamate]
EC50 [1, 5]: < 5.46 nM
EC50 [2, 6]: < 5.46 nM

CCOc1nnc(O[C@@H]2C[C@H]3C(=O)N[C@]4(C(=O)NS(=O)(=O)C5(C)CC5)C[C@H]4/C=C\CC[C@H](C)C[C@@H](CC)[C@H](NC(=O)OC(C)(C)C(F)(F)F)C(=O)N3C2)c2ccccc12 [Compound 5048, 1,1,1-trifluoro-2-methylpropan-2-yl((2R,6S,7R,9S,13aS,14aR,16aS,Z)-2-((4-ethoxyphthalazin-1-yl)oxy)-7-ethyl-9-methyl-14a-(((1-methylcyclopropyl)sulfonyl)carbamoyl)-5,16-dioxo-1,2,3,5,6,7,8,9,10,11,13a,14,14a,15,16,16a-hexadecahydrocyclopropa[e]pyrrolo[1,2-a][1,4]diazacyclopentadecin-6-yl)carbamate]
EC50 [1, 7]: 4.82 to 103 nM
EC50 [2, 8]: 4.82 to 103 nM

CC[C@@H]1C[C@@H](C)CC/C=C\[C@@H]2C[C@@]2(C(=O)NS(=O)(=O)C2CC2)NC(=O)[C@@H]2C[C@@H](Oc3nccc4c5c(ccc34)N(C)CCO5)CN2C(=O)[C@H]1NC(=O)O[C@@H]1C[C@@H]2C[C@@H]2C1 [Compound 5313, (1R,3r,5 S)-bicyclo[3.1.0]hexan-3-yl((2R,6S,7R,9S,13aS,14aR,16aS,Z)-14a-((cyclopropylsulfonyl)carbamoyl)-7-ethyl-9-methyl-2-((4-methyl-3,4-dihydro-2H-[1,4]oxazino[2,3-f]isoquinolin-7-yl)oxy)-5,16-dioxo-1,2,3,5,6,7,8,9,10,11,13a,14,14a,15,16,16a-hexadecahydrocyclopropa[e]pyrrolo[1,2-a][1,4]diazacyclopentadecin-6-yl)carbamate]
EC50 [1, 7]: < 5.46 nM
EC50 [2, 8]: < 5.46 nM

CCN(C)c1cc2cc(OC)ccc2c(O[C@@H]2C[C@H]3C(=O)N[C@]4(C(=O)NS(=O)(=O)C5(CF)CC5)C[C@H]4/C=C\CC[C@H](C)C[C@@H](C)[C@H](NC(=O)OC(C)(C)C(C)(F)F)C(=O)N3C2)n1 [Compound 1138, 3,3-difluoro-2-methylbutan-2-yl((2R,6S,7R,9S,13aS,14aR,16aS,Z)-2-((3-(ethyl(methyl)amino)-6-methoxyisoquinolin-1-yl)oxy)-14a-(((1-(fluoromethyl)cyclopropyl)sulfonyl)carbamoyl)-7,9-dimethyl-5,16-dioxo-1,2,3,5,6,7,8,9,10,11,13a,14,14a,15,16,16a-hexadecahydrocyclopropa[e]pyrrolo[1,2-a][1,4]diazacyclopentadecin-6-yl)carbamate]
EC50 [1, 5]: > 87.4 nM
EC50 [2, 6]: > 87.4 nM

CC(C)n1nc(O[C@@H]2C[C@H]3C(=O)N[C@]4(C(=O)NS(=O)(=O)C5CC5)C[C@H]4/C=C\CC[C@H](C)C[C@@H](C)[C@H](NC(=O)OC(C)(C)C(C)(F)F)C(=O)N3C2)c2ccccc2c1=O [Compound 1017, 3,3-difluoro-2-methylbutan-2-yl((2R,6S,7R,9S,13aS,14aR,16aS,Z)-14a-((cyclopropylsulfonyl)carbamoyl)-2-((3-isopropyl-4-oxo-3,4-dihydrophthalazin-1-yl)oxy)-7,9-dimethyl-5,16-dioxo-1,2,3,5,6,7,8,9,10,11,13a,14,14a,15,16,16a-hexadecahydrocyclopropa[e]pyrrolo[1,2-a][1,4]diazacyclopentadecin-6-yl)carbamate]
EC50 [1, 5]: > 87.4 nM
EC50 [2, 6]: > 87.4 nM

CC[C@@H]1C[C@H](C)CC/C=C\[C@@H]2C[C@@]2(C(=O)NS(=O)(=O)C2(C)CC2)NC(=O)[C@@H]2C[C@@H](Oc3nnc(OC)c4ccccc34)CN2C(=O)[C@H]1NC(=O)NC(C)(C)C [Compound 5024, (2R,6S,7R,9R,13aS,14aR,16aS,Z)-6-(3-(tert-butyl)ureido)-7-ethyl-2-((4-methoxyphthalazin-1-yl)oxy)-9-methyl-N-((1-methylcyclopropyl)sulfonyl)-5,16-dioxo-1,2,3,5,6,7,8,9,10,11,13a,14,14a,15,16,16a-hexadecahydrocyclopropa[e]pyrrolo[1,2-a][1,4]diazacyclopentadecine-14a-carboxamide]
EC50 [1, 7]: < 5.46 nM
EC50 [2, 8]: < 5.46 nM

COc1cc2nc(C(F)(F)F)c(OC)nc2cc1O[C@@H]1C[C@H]2C(=O)N[C@]3(C(=O)NS(=O)(=O)C4(C)CC4)C[C@H]3/C=C\CC[C@@H](C)C[C@@H](C)[C@H](NC(=O)OC(C)(C)C(F)(F)F)C(=O)N2C1 [Compound 4353]
EC50 [1, 3]: 1.01 to 5 nM
EC50 [2, 4]: 5.01 to 35 nM
